Laboratory results from article PMC12169669, “Regio- and Stereoselective Synthesis of Nitro-fatty Acids as NRF2 Pathway Activators Working under Ambient or Hypoxic Conditions” (Journal of Medicinal Chemistry, 2025).

Legend:
NRF2 [1] = details: comparison of positional isomers; literature; cited from earlier work
NRF2 [2] = assay: Immunocytochemistry of NRF2 in BMCs; format: cell-based, mouse; details: 1 h, 1% oxygen
Method: BMCs (2 × 10^6 cells in 300 μL of complete medium) were incubated with 10-NO 2 OA or control medium for 1 h in a 1% oxygen incubator. Cells were then washed with PBS, resuspended in fresh PBS, and plated on an 8-well μ-slide (ibidi, Germany). After allowing cells to settle (10 min), PBS was aspirated, and cells were fixed with 4% paraformaldehyde for 10 min. From this step onward, all work was performed under atmospheric conditions. Cells were washed twice, permeabilized with 0.1% Triton X-100, washed again, and blocked with 1% BSA/PBS. Samples were incubated with primary anti-NRF2 antibody (1:100, SAB4501384, Millipore) overnight at 4 °C. After washing, a secondary Alexa Fluor 647 antibody (1:100, A31573, Invitrogen) was added for 1 h at room temperature in the dark. After washes, nuclei were stained with DAPI (0.5 μg/mL, Merck) for 10 min at room temperature in the dark, washed, and mounted on a microscope slide. Images were acquired with an Olympus FV10i (Olympus, Japan) scanning microscope and analyzed using ImageJ v1.52 (NIH).
5 Subcellular localization of NRF2. NO 2 FA derivatives promote nuclear translocation of NRF2 in mouse BMCs. BMCs were cultured under 1% oxygen conditions and treated for 1 h with 2 μM of 10-NO 2 OA, 10-NO 2 LA, or 10-NO 2 SA. […] Data are expressed as mean ± SD from two independent experiments (n = 2). […]

Gclm and Hmox1 = system: Gclm and Hmox1; design: method as in Khoo et al.; details: compared to other derivatives; ref Khoo et al.; cited from earlier work

SMILES | NRF2 activation (ARE-reporter luciferase) (NRF2 [1]) | colocalization of NRF2 with the nucleus (NRF2 [2]) | expression of Gclm and Hmox1 (Gclm and Hmox1)
CCCCCCCC/C=C(\CCCCCCCC(=O)O)[N+](=O)[O-] [9-NO2OA, (9E)-9-Nitro-oleic Acid] | preferentially activated NRF2 over 10-NO 2 OA | – | –
CCCCCCCC/C(=C\CCCCCCCC(=O)O)[N+](=O)[O-] [10-NO2OA, (9E)-10-Nitro-oleic Acid] | – | increased colocalization | induced a higher expression
